pIC50: −log10 of the molar value. Read-outs that look alike come from different tables or passages of the source.
Key:
[1] = test system: male CD IGS (Sprague Dawley derived) rats; experiment: Measurement of hypothermia (rectal temperature); format: in vivo; conditions: Rattus norvegicus, sc, read-out: Hypothermia MED
Method: The induction of hypothermia was determined for compounds of the invention according to the methods described in Freedman, et al., European Journal of Pharmacology, 187 (1990), 193-199, which is incorporated by reference herein. Dose range and time course for cholinergic effects of the compounds of the invention was also determined. […]
(§1) The dose range and time course for cholinergic effects of the compounds of the invention was determined as described below.
(§2) Subjects: Two hundred eight male CD IGS (Sprague Dawley derived) rats were received at 126-150 grams and maintained four per cage on a regular light/dark cycle (lights on 0600-1800) with ad libitum food and water for about 1 week before commencement of experimentation. Apparatus: Injection was done with a 25-gauge ⅝-inch needle on a 1-mL tuberculin syringe. Observation was done in a 5½-×10-inch polycarbonate rat housing cage. Temperature was taken with a rat rectal probe on a Model BAT-12 electronic thermometer. Compound Preparation: Test compounds were dissolved for example, in 0.9% saline. Concentrations for lower doses were prepared by taking aliquots from higher concentrations and diluting. Injection volumes were 1 mL/kg, if the test compound was sufficiently soluble. If less soluble, maximum injection volume were 5 mL/kg. Route of administration was s.c. As sample protocol is as follows: Treatment Groups included (N=3, with 6 for Saline)
(§3) Procedure: The rats were brought to the test room in the home cage. Baseline temperature were be taken just before injection. After injection s.c., the rat was placed in the observation cage. At 0.5, 1, 2, and 4 hours after injection, it was observed briefly for gross signs; salivation was scored as absent, clearly present, or copious; and rectal temperature was taken. In observation for gross signs, special attention was paid to fasciculation (muscle twitch), tremor/ataxia, and abnormal gait.

[2] = target: T1, human recombinant acetylcholinesterase (Homo sapiens, UniProt P22303); experiment: Inhibition of acetylcholinesterase in vitro (modified Ellman colorimetric method, Dixon plot); format: biochemical; conditions: human recombinant AChE, 25° C., 30 minutes preincubation, 0.3 mM acetylthiocholine, pH 8
T1 construct: purchased Sigma Chemical Co (St. Louis, Mo.) C1682
T1 sequence (P22303 32-614): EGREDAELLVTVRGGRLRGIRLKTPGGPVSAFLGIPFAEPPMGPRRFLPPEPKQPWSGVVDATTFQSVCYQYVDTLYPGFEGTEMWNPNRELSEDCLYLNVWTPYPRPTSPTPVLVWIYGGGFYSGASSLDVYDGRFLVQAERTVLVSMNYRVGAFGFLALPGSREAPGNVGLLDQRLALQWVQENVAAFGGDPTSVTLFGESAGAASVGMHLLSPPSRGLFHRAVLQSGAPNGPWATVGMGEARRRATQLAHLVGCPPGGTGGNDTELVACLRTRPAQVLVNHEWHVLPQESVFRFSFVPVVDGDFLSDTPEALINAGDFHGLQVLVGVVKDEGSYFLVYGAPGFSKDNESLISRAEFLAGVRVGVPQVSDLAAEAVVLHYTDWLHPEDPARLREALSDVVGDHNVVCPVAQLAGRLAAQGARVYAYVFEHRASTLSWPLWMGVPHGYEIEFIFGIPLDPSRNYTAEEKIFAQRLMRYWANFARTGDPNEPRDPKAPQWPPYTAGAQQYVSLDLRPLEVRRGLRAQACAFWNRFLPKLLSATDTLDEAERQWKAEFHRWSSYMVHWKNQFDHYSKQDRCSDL

[3] = test system: male CD IGS (Sprague Dawley derived) rats; experiment: Determination of the dose range and time course for cholinergic effects (gross signs, salivation); conditions: s.c., doses 1, 3, 10, 30 and 100 mg/kg; observed up to 4 hours
Method: The induction of hypothermia was determined for compounds of the invention according to the methods described in Freedman, et al., European Journal of Pharmacology, 187 (1990), 193-199, which is incorporated by reference herein. Dose range and time course for cholinergic effects of the compounds of the invention was also determined.
as §1, §2, §3

AChE = AChE (Homo sapiens, UniProt P22303); experiment: In vitro screening assay, AChE inhibition (spectrophotometric quantitation of thiocholine); format: biochemical; conditions: 700 μM acetylthiocholine, pH 7.4, 25° C.; for AChEI (%) 1 μM: 1 μM compound; for AChEI (%) 10 μM: 10 μM compound
Chain of AChE (P22303 32-614): as above

BuChE = BuChE (Homo sapiens, UniProt P06276); experiment: In vitro screening assay, BuChE inhibition; format: biochemical; conditions: for BuChEI (%) 1 μM: 1 μM compound; for BuChEI (%) 10 μM: 10 μM compound
Chain of BuChE (P06276 29-602): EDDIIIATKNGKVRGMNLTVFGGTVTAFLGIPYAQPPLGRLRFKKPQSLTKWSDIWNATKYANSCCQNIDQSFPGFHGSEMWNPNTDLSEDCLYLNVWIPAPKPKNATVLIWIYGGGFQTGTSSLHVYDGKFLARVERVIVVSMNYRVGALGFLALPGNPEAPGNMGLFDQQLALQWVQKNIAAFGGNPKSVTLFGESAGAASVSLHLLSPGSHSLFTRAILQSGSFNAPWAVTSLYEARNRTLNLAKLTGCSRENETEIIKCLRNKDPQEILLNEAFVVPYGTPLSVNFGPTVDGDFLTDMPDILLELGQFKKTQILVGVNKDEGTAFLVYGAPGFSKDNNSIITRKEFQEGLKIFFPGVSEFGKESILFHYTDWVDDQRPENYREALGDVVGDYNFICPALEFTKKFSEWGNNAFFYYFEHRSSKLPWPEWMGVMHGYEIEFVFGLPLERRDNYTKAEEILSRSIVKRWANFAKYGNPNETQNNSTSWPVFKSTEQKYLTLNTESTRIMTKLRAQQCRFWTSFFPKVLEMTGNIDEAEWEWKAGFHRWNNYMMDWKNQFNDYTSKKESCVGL
Source text: (§4) An in vitro screening assay with compounds of the invention was completed according to the methods described in Ellman G L et al., Biochem Pharmacol., 7:88-95 (1961) and in Nadarajah B, J. Anal. Toxicol., 16:192-193 (1992), both of which are herein incorporated by reference in their entireties.
as §4, with “entireties. The assay method was completed according to the following: […]” for “entireties.”

[4] = minimum effective dose for hypothermia, s.c., temperature at 0.5, 1, 2 and 4 hours after injection

## C[C@@H](c1cccc(OC(=O)N(C)CCC(Oc2ccc(C(F)(F)F)cc2)c2ccccc2)c1)N(C)C (stereo partly shown) [Compound 7, S-rivastigmine-fluoxetine]
[1]; [4]
  minimal effective dose: 3 mg/kg

## C[C@@H](c1cccc(OC(=O)N[C@@H]2C[C@H]2c2ccccc2)c1)N(C)C [Compound 2, S-rivastigmine-tranylcypromine]
[2]
  pIC50: 6.70
[1]; [4]
  minimal effective dose: 10 mg/kg
[3]
  Max Tolerated Dose: 30
AChE
  AChEI (%) 1 μM: 84%
  AChEI (%) 10 μM: 97%
BuChE
  BuChEI (%) 1 μM: 23%
  BuChEI (%) 10 μM: 67%

## CCN(C)C(=O)Oc1cccc([C@H](C)N(C)C)c1 [Compound 1, S-rivastigmine, reference compound]
[1]; [4]
  minimal effective dose: ≤ 0.1 mg/kg

## CCOC(=O)C1=C(COCCNC(=O)Oc2cccc([C@H](C)N(C)C)c2)NC(C)=C(C(=O)OC)C1c1ccccc1Cl (stereo partly shown) [Compound 12, S-rivastigmine-amlodipine]
[2]
  pIC50: 5.43
AChE
  AChEI (%) 1 μM: 20%
  AChEI (%) 10 μM: 79%
BuChE
  BuChEI (%) 10 μM: 6%

## C[C@@H](c1cccc(OC(=O)NCC(CC(=O)O)c2ccc(Cl)cc2)c1)N(C)C (stereo partly shown) [Compound 19, S-riva baclofen]
[2]
  pIC50: 4.77

## C[C@@H](c1cccc(OC(=O)N2CCN(C3=Nc4ccccc4Oc4ccc(Cl)cc43)CC2)c1)N(C)C [Compound 3, S-rivastigmine-amoxapine]
[1]; [4]
  minimal effective dose: 10 mg/kg

## CC(CC1CCCCC1)N(C)C(=O)Oc1cccc([C@H](C)N(C)C)c1 (stereo partly shown) [Compound 13, S-rivastigmine-propylhexedrine]
[1]; [4]
  minimal effective dose: 10 mg/kg
AChE
  AChEI (%) 1 μM: 62%
  AChEI (%) 10 μM: 99%
BuChE
  BuChEI (%) 1 μM: 37%
  BuChEI (%) 10 μM: 100%

## C[C@@H](c1cccc(OC(=O)N2CCC(=C3c4ccc(Cl)cc4CCc4cccnc43)CC2)c1)N(C)C [Compound 15, S-rivastigmine-desloratidine]
[2]
  pIC50: 4.90
[1]
  minimal effective dose: 3 mg/kg
[3]
  Max Tolerated Dose: ≧100
AChE
  AChEI (%) 10 μM: 36%
BuChE
  BuChEI (%) 10 μM: 6%

## C[C@@H](c1cccc(OC(=O)N2CCN(c3cc4c(cc3F)c(=O)c(C(=O)O)cn4C3CC3)CC2)c1)N(C)C [Compound 20, S-riva ciprofloxacin]
[2]
  pIC50: 4.27

## C[C@@H](c1cccc(OC(=O)N(C)CCCN2c3ccccc3CCc3ccccc32)c1)N(C)C [Compound 4, S-rivastigmine-desipramine]
[1]; [4]
  minimal effective dose: 3 mg/kg

## C[C@@H](c1cccc(OC(=O)NC23CC4CC(CC(C4)C2)C3)c1)N(C)C [Compound 16, S-riva- amantadine]
[2]
  pIC50: 4.14

## C[C@@H](c1cccc(OC(=O)N(C)CCCC2c3ccccc3C=Cc3ccccc32)c1)N(C)C [Compound 6, S-rivastigmine-protriptyline]
[1]; [4]
  minimal effective dose: 100 mg/kg

## C[C@@H](c1cccc(OC(=O)N(C)CCC=C2c3ccccc3CCc3ccccc32)c1)N(C)C [Compound 5, S-rivastigmine-nortriptyline]
[1]; [4]
  minimal effective dose: ≤ 1 mg/kg
[3]
  Max Tolerated Dose: ≧100

## CC(NC(=O)Oc1cccc([C@H](C)N(C)C)c1)C12CC3CC(CC(C3)C1)C2 (stereo partly shown) [Compound 14, S-rivastigmine-rimantadine]
[2]
  pIC50: 5.35
AChE
  AChEI (%) 1 μM: 28%
  AChEI (%) 10 μM: 77%
BuChE
  BuChEI (%) 10 μM: 13%

## CC(C)C[C@@H](CNC(=O)Oc1cccc([C@H](C)N(C)C)c1)CC(=O)O [Compound 18, S-riva pregabalin]
[2]
  pIC50: 4.60

## C[C@@H](c1cccc(OC(=O)N[C@@]23CC4C[C@@](C)(C[C@@](C)(C4)C2)C3)c1)N(C)C [Compound 17, S-riva memantine]
[2]
  pIC50: 5.24

## C[C@@H](c1cccc(OC(=O)N(C)CCc2ccccn2)c1)N(C)C [Compound 11, S-rivastigmine-betahistine]
[2]
  pIC50: 4.88
[1]
  minimal effective dose: < 1 mg/kg
[3]
  Max Tolerated Dose: 30
AChE
  AChEI (%) 10 μM: 47%
BuChE
  BuChEI (%) 1 μM: 45%
  BuChEI (%) 10 μM: 100%
